Source: US20070128217A1 (priority 2003, published 2007)

Tests used:
[1] = tested on: antibodies in sera from SARS patients (sera 1a, 1b, 2, 6, 37, 62, London, SARS-yellow, SARS-green); type: binding, human; design: Binding of serum 6 to linear peptides of protein X1 of SARS-CoV Urbani / Binding of serum 37 to linear peptides of protein X1 of SARS-CoV Urbani / Binding of serum 6 to looped/cyclic peptide (PEPSCAN-ELISA) / Binding of serum 37 to looped/cyclic peptide (PEPSCAN-ELISA) / Binding of serum 37 to looped/cyclic peptides of protein X1 of SARS-CoV Urbani / Binding of serum 6 to linear peptides of protein X2 / Binding of serum 37 to linear peptides of protein X2 / Binding of serum 37 to looped/cyclic peptides of protein X2 of SARS-CoV Urbani / Binding of serum 6 to linear peptides of protein M of SARS-CoV Urbani / Binding of serum 37 to linear peptides of protein M of SARS-CoV Urbani / Binding of serum 6 to looped/cyclic peptides of protein M of SARS-CoV Urbani / Binding of serum 37 to looped/cyclic peptides of protein M of SARS-CoV Urbani / Binding of serum 6 to linear peptides of protein X3 of SARS-CoV Urbani / Binding of serum 37 to linear peptides of protein X3 of SARS-CoV Urbani / Binding of serum 37 to looped/cyclic peptides of protein X3 of SARS-CoV Urbani / Binding of serum 6 to linear peptides of protein X4 of SARS-CoV Urbani / Binding of serum 37 to linear peptides of protein X4 of SARS-CoV Urbani / Binding of serum 37 to looped/cyclic peptides of protein X4 of SARS-CoV Urbani / Binding of serum 6 to linear peptides of protein X5 of SARS-CoV Urbani / Binding of serum 37 to linear peptides of protein X5 of SARS-CoV Urbani / Binding of serum 37 to looped/cyclic peptides of protein X5 of SARS-CoV Urbani / Binding of serum 6 to linear peptides of protein N of SARS-CoV Urbani / Binding of serum 37 to linear peptides of protein N of SARS-CoV Urbani / Binding of serum 6 to linear peptide (PEPSCAN-ELISA) / Binding of serum 1a to looped/cyclic peptides of protein N of SARS-CoV Urbani / Binding of serum 1b to looped/cyclic peptides of protein N of SARS-CoV Urbani / Binding of serum 2 to looped/cyclic peptides of protein N of SARS-CoV Urbani / Binding of serum 6 to looped/cyclic peptides of protein N of SARS-CoV Urbani / Binding of serum 37 to looped/cyclic peptides of protein N of SARS-CoV Urbani / Binding of serum 62 to looped/cyclic peptides of protein N of SARS-CoV Urbani / Binding of serum London to looped/cyclic peptides of protein N of SARS-CoV Urbani / Binding of serum SARS-green to looped/cyclic peptides of protein N of SARS-CoV Urbani: unit not given here
[2] = tested on: control sera (pooled serum of ten healthy LUMC hospital workers; commercial negative donor pooled serum from the Dutch bloodbank); type: binding, human; design: Binding of Control serum LUMC to linear peptides / Binding of Control serum Blood-bank to linear peptides / Binding of Control serum LUMC to looped peptides / Binding of Control Serum Blood-Bank to Looped peptides / Binding of Control serum LUMC to linear peptides of the protein M of SARS-CoV Urbani / Binding of Control serum Blood-bank to linear peptides of the protein M of SARS-CoV Urbani / Binding of Control serum LUMC to looped peptides of the protein M of SARS-CoV Urbani / Binding of Control Serum Blood-Bank to Looped peptides of the protein M of SARS-CoV Urbani: unit not given here
[3] = tested on: rabbit serum obtained by immunizing a rabbit with the SARS-CoV strain Frankfurt 1; type: binding; design: Binding of a rabbit serum to linear peptides / Binding of a rabbit serum to looped peptides / Rabbit serum linear peptides / Rabbit serum looped peptides / Binding of a rabbit serum to linear peptides of protein N of SARS-CoV Urbani (Rabbit serum linear peptides) / Binding of a rabbit serum to looped/cyclic peptides of protein N of SARS-CoV Urbani (Rabbit serum looped peptides): unit not given here

ILFLTLIVFTSCELY
Binding of serum 1a to linear peptides of protein X4 of SARS-CoV Urbani [1]: 0.7 | Binding of serum 1a to looped/cyclic peptides of protein X4 of SARS-CoV Urbani [1]: 0.7 | Binding of serum 1b to linear peptides of protein X4 of SARS-CoV Urbani [1]: 0.6 | Binding of serum 1b to looped/cyclic peptides of protein X4 of SARS-CoV Urbani [1]: 0.4 | Binding of serum 2 to linear peptides of protein X4 of SARS-CoV Urbani [1]: 0.5 | Binding of serum 2 to looped/cyclic peptides of protein X4 of SARS-CoV Urbani [1]: 0.7 | Binding of serum 6 to linear peptides of protein X4 of SARS-CoV Urbani [1]: 0.5 | Binding of serum 6 to looped/cyclic peptides of protein X4 of SARS-CoV Urbani [1]: 0.6 | Binding of serum 37 to linear peptides of protein X4 of SARS-CoV Urbani [1]: 0.7 | Binding of serum 37 to looped/cyclic peptides of protein X4 of SARS-CoV Urbani [1]: 0.7 | Binding of serum 62 to linear peptides of protein X4 of SARS-CoV Urbani [1]: 0.7 | Binding of serum 62 to looped/cyclic peptides of protein X4 of SARS-CoV Urbani [1]: 0.7 | Binding of serum London to linear peptides of protein X4 of SARS-CoV Urbani [1]: 0.6 | Binding of serum London to looped/cyclic peptides of protein X4 of SARS-CoV Urbani [1]: 0.3 | Binding of serum SARS-green to linear peptides of protein X4 of SARS-CoV Urbani [1]: 0.6 | Binding of serum SARS-green to looped/cyclic peptides of protein X4 of SARS-CoV Urbani [1]: 0.4 | Binding of serum SARS-yellow to linear peptides of protein X4 of SARS-CoV Urbani [1]: 0.4 | Binding of serum SARS-yellow to looped/cyclic peptides of protein X4 of SARS-CoV Urbani [1]: 0.6 | Binding of Control Serum Blood-Bank to Looped peptides [2]: 0.7 | Binding of Control serum Blood-bank to linear peptides [2]: 0.6 | Binding of Control serum LUMC to linear peptides [2]: 0.7 | Binding of Control serum LUMC to looped peptides [2]: 0.8 | Rabbit serum linear peptides [3]: 0.7 | Rabbit serum looped peptides [3]: 0.2

ILRIGTQVLKTMSLY
Binding of serum 1a to linear peptides of protein X2 [1]: 0.7 | Binding of serum 1a to looped/cyclic peptides of protein X2 of SARS-CoV Urbani [1]: 0.6 | Binding of serum 1b to linear peptides of protein X2 [1]: 0.5 | Binding of serum 1b to looped/cyclic peptides of protein X2 of SARS-CoV Urbani [1]: 0.5 | Binding of serum 2 to linear peptides of protein X2 [1]: 0.4 | Binding of serum 2 to looped/cyclic peptides of protein X2 of SARS-CoV Urbani [1]: 0.3 | Binding of serum 6 to linear peptides of protein X2 [1]: 0.4 | Binding of serum 6 to looped/cyclic peptides of protein X2 of SARS-CoV Urbani [1]: 0.5 | Binding of serum 37 to linear peptides of protein X2 [1]: 0.6 | Binding of serum 37 to looped/cyclic peptides of protein X2 of SARS-CoV Urbani [1]: 0.5 | Binding of serum 62 to linear peptides of protein X2 [1]: 0.6 | Binding of serum 62 to looped/cyclic peptides of protein X2 of SARS-CoV Urbani [1]: 0.6 | Binding of serum London to linear peptides of protein X2 [1]: 0.4 | Binding of serum London to looped/cyclic peptides of protein X2 of SARS-CoV Urbani [1]: 0.3 | Binding of serum SARS-green to linear peptides of protein X2 [1]: 0.4 | Binding of serum SARS-green to looped/cyclic peptides of protein X2 of SARS-CoV Urbani [1]: 0.3 | Binding of serum SARS-yellow to linear peptides of protein X2 [1]: 0.5 | Binding of serum SARS-yellow to looped/cyclic peptides of protein X2 of SARS-CoV Urbani [1]: 0.6 | Binding of Control Serum Blood-Bank to Looped peptides [2]: 0.7 | Binding of Control serum Blood-bank to linear peptides [2]: 0.6 | Binding of Control serum LUMC to linear peptides [2]: 0.4 | Binding of Control serum LUMC to looped peptides [2]: 0.7 | Binding of a rabbit serum to linear peptides [3]: 0.3 | Binding of a rabbit serum to looped peptides [3]: 0.5

IMLLQFAYSNRNRFL
Binding of serum 1a to linear peptides of protein M of SARS-CoV Urbani [1]: 0.7 | Binding of serum 1a to looped/cyclic peptides of protein M of SARS-CoV Urbani [1]: 0.6 | Binding of serum 1b to linear peptides of protein M of SARS-CoV Urbani [1]: 0.5 | Binding of serum 1b to looped/cyclic peptides of protein M of SARS-CoV Urbani [1]: 0.4 | Binding of serum 2 to linear peptides of protein M of SARS-CoV Urbani [1]: 0.4 | Binding of serum 2 to looped/cyclic peptides of protein M of SARS-CoV Urbani [1]: 0.6 | Binding of serum 6 to linear peptides of protein M of SARS-CoV Urbani [1]: 0.4 | Binding of serum 6 to looped/cyclic peptides of protein M of SARS-CoV Urbani [1]: 1.0 | Binding of serum 37 to linear peptides of protein M of SARS-CoV Urbani [1]: 0.4 | Binding of serum 37 to looped/cyclic peptides of protein M of SARS-CoV Urbani [1]: 0.6 | Binding of serum 62 to linear peptides of protein M of SARS-CoV Urbani [1]: 0.3 | Binding of serum 62 to looped/cyclic peptides of protein M of SARS-CoV Urbani [1]: 0.5 | Binding of serum London to linear peptides of protein M of SARS-CoV Urbani [1]: 0.3 | Binding of serum London to looped/cyclic peptides of protein M of SARS-CoV Urbani [1]: 0.6 | Binding of serum SARS-green to linear peptides of protein M of SARS-CoV Urbani [1]: 0.4 | Binding of serum SARS-green to looped/cyclic peptides of protein M of SARS-CoV Urbani [1]: 0.3 | Binding of serum SARS-yellow to linear peptides of protein M of SARS-CoV Urbani [1]: 0.2 | Binding of serum SARS-yellow to looped/cyclic peptides of protein M of SARS-CoV Urbani [1]: 0.6 | Binding of Control Serum Blood-Bank to Looped peptides of the protein M of SARS-CoV Urbani [2]: 0.5 | Binding of Control serum Blood-bank to linear peptides of the protein M of SARS-CoV Urbani [2]: 0.5 | Binding of Control serum LUMC to linear peptides of the protein M of SARS-CoV Urbani [2]: 0.6 | Binding of Control serum LUMC to looped peptides of the protein M of SARS-CoV Urbani [2]: 0.6 | Rabbit serum linear peptides [3]: 0.2 | Rabbit serum looped peptides [3]: 0.5

INACRIIMRCWLCWK
Binding of serum 1a to looped/cyclic peptide (PEPSCAN-ELISA) [1]: 0.6 | Binding of serum 1b to looped/cyclic peptide (PEPSCAN-ELISA) [1]: 0.4 | Binding of serum 2 to looped/cyclic peptide (PEPSCAN-ELISA) [1]: 0.6 | Binding of serum 6 to looped/cyclic peptide (PEPSCAN-ELISA) [1]: 0.6 | Binding of serum 37 to looped/cyclic peptide (PEPSCAN-ELISA) [1]: 0.5 | Binding of serum 62 to looped/cyclic peptide (PEPSCAN-ELISA) [1]: 0.6 | Binding of serum London to looped/cyclic peptide (PEPSCAN-ELISA) [1]: 0.4 | Binding of serum SARS-green to looped/cyclic peptide (PEPSCAN-ELISA) [1]: 0.3 | Binding of serum SARS-yellow to looped/cyclic peptide (PEPSCAN-ELISA) [1]: 0.5 | Recognition of the peptide by sera of SARS-CoV infected individuals, and form (linear, looped/cyclic) in which it is recognized [1]: recognized in linear form | Binding of Control Serum Blood-Bank to Looped peptides [2]: 0.7 | Binding of Control serum Blood-bank to linear peptides [2]: 0.9 | Binding of Control serum LUMC to linear peptides [2]: 0.4 | Binding of Control serum LUMC to looped peptides [2]: 0.6 | Recognition of the peptide by the rabbit serum [3]: recognized
